Assay results: the supplement of paper PMC10307832

Legend:
Assay in all cases: relative viability (nuclei count vs DMSO), 5 days (fraction); higher = more cells survive
VE-821 + Decitabine = compound: CS(=O)(=O)c1ccc(-c2cnc(N)c(C(=O)Nc3ccccc3)n2)cc1 [VE-821] + Nc1ncn([C@H]2C[C@H](O)[C@@H](CO)O2)c(=O)n1 [Decitabine] (partner 2 µM)
In short: (§1)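 Lung cancer cell lines in 1536-well plates were dosed by pin tool the day after seeding, either with one drug alone or with a fixed anchor-drug dose plus five library-drug doses (not always all listed) in √10 steps. After 5 days, cells were fixed and their nuclei stained in one step (final 0.05% Triton X-100, 1% formaldehyde, 1 ug/ml Hoechst), then counted on 4× images. Relative viability is the nuclei count in treated wells divided by that in vehicle wells. Values are medians of duplicate plates.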

VE-821 + Linsitinib = compound: CS(=O)(=O)c1ccc(-c2cnc(N)c(C(=O)Nc3ccccc3)n2)cc1 [VE-821] + C[C@]1(O)C[C@@H](c2nc(-c3ccc4ccc(-c5ccccc5)nc4c3)c3c(N)nccn32)C1 [Linsitinib] (partner 1 µM)
In short: as §1

Ruxolitinib + Bortezomib = compound: N#CC[C@H](C1CCCC1)n1cc(-c2ncnc3[nH]ccc23)cn1 [Ruxolitinib] + CC(C)C[C@H](NC(=O)[C@H](Cc1ccccc1)NC(=O)c1cnccn1)B(O)O [Bortezomib] (partner 0.002 µM)
In short: as §1

VE-821 + Crizotinib = compound: CS(=O)(=O)c1ccc(-c2cnc(N)c(C(=O)Nc3ccccc3)n2)cc1 [VE-821] + C[C@@H](Oc1cc(-c2cnn(C3CCNCC3)c2)cnc1N)c1c(Cl)ccc(F)c1Cl [Crizotinib] (partner 1 µM)
In short: as §1

Row | Cell Line | relative viability (VE-821 + Decitabine; first compound 0.08 µM) | relative viability (VE-821 + Decitabine; first compound 0.253 µM) | relative viability (VE-821 + Decitabine; first compound 0.8 µM) | relative viability (VE-821 + Decitabine; first compound 2.53 µM) | relative viability (VE-821 + Decitabine; first compound 8 µM) | relative viability (VE-821 + Linsitinib; first compound 0.08 µM) | relative viability (VE-821 + Linsitinib; first compound 0.253 µM) | relative viability (VE-821 + Linsitinib; first compound 0.8 µM) | relative viability (VE-821 + Linsitinib; first compound 2.53 µM) | relative viability (VE-821 + Linsitinib; first compound 8 µM) | relative viability (Ruxolitinib + Bortezomib; first compound 0.08 µM) | relative viability (Ruxolitinib + Bortezomib; first compound 0.253 µM) | relative viability (Ruxolitinib + Bortezomib; first compound 0.8 µM) | relative viability (Ruxolitinib + Bortezomib; first compound 2.53 µM) | relative viability (Ruxolitinib + Bortezomib; first compound 8 µM) | relative viability (VE-821 + Crizotinib; first compound 0.08 µM) | relative viability (VE-821 + Crizotinib; first compound 0.253 µM) | relative viability (VE-821 + Crizotinib; first compound 0.8 µM) | relative viability (VE-821 + Crizotinib; first compound 2.53 µM) | relative viability (VE-821 + Crizotinib; first compound 8 µM)
1 | NCI-H1395 | 0.733 | 0.672 | 0.74 | 0.74 | 0.638 | 1.07 | 1.01 | 0.893 | 1.05 | 0.683 | – | – | – | – | – | – | – | – | – | –
2 | NCI-H1563 | – | – | – | – | – | 1.26 | 1.17 | 0.914 | 1.08 | 1.05 | 0.992 | 0.867 | 0.97 | 0.833 | 0.788 | 1.02 | 0.781 | 0.751 | 0.694 | 0.695
3 | NCI-H1648 | 0.658 | – | 0.54 | 0.498 | 0.471 | – | – | – | – | – | – | – | – | – | – | – | – | – | – | –
4 | NCI-H1650 | 0.448 | 0.369 | 0.322 | 0.437 | 0.389 | – | – | – | – | – | – | 0.185 | 0.188 | 0.18 | 0.195 | 1.03 | 1.08 | 0.896 | 0.873 | 0.478
5 | NCI-H1703 | – | – | – | – | – | 1.42 | 0.51 | 0.649 | 0.93 | 0.629 | 0.412 | 0.38 | 0.346 | 0.338 | 0.245 | 1.04 | 0.578 | 0.688 | 0.336 | 0.248
6 | NCI-H1793 | 0.55 | 0.468 | – | 0.637 | 0.461 | 1.01 | 0.846 | 0.459 | 1.01 | 0.698 | – | – | – | – | – | – | – | – | – | –
7 | NCI-H1944 | 0.418 | 0.408 | 0.418 | 0.438 | 0.343 | 1.26 | 1.16 | 0.832 | 1.3 | 0.663 | – | – | – | – | – | 1.25 | 1.05 | 0.956 | 1.14 | 0.696
8 | NCI-H2170 | 0.515 | 0.469 | 0.487 | 0.434 | 0.295 | – | – | – | – | – | – | – | – | – | – | 1.29 | 1.26 | 1.11 | 0.655 | 0.776
9 | NCI-H2228 | – | – | – | – | – | 0.955 | 0.866 | 0.635 | 0.758 | 0.395 | 1.27 | 1.11 | 1.14 | 0.957 | 1.09 | 0.479 | 0.459 | 0.414 | 0.37 | 0.35
10 | NCI-H2342 | 0.773 | 0.754 | 0.704 | 0.75 | 0.682 | – | – | – | – | – | – | – | – | – | – | – | – | – | – | –
11 | SK-MES-1 | 0.373 | 0.406 | 0.38 | 0.361 | 0.284 | 1.04 | 1.05 | 1.02 | 1.02 | 0.983 | – | – | – | – | – | 1.07 | 0.93 | 0.924 | 0.95 | 0.896
12 | SW 900 | 0.471 | 0.456 | 0.472 | 0.469 | 0.386 | – | – | – | – | – | – | – | – | – | – | – | – | – | – | –
